Reference: paper PMC10382042, “Brevetoxin versus Brevenal Modulation of Human Nav1 Channels” (Marine Drugs, 2023)

Experiments:
[1] = system: human Nav1.2, Nav1.4, Nav1.5, Nav1.7; assay: in vitro; assay type: cell-based; settings: human; all Nav subtypes, Ipeak and Ilate; read-out: pI/EC50, range over Nav currents
Experimental: (§1) Functional modulation of recombinant human voltage-gated sodium (Nav) channels exposed to marine PbTx-3 and brevenal was assessed by automated patch-clamp electrophysiology. Neuronal Nav1.2 (CNS) and Nav1.7 (PNS), in addition to muscle Nav1.4 (skeletal) and Nav1.5 (cardiac) sodium channels, were patch-clamped in mammalian cells. Whole-cell currents mediated by human Nav1.4 and Nav1.7 overexpressed in CHO-K1 cells, as well as human Nav1.2 and Nav1.5 overexpressed in HEK293 cells, were recorded at room temperature. Currents were elicited by 25 ms test pulses to −20 mV from a holding potential (Vh) of −120 mV, delivered for 5 min at 0.1 Hz, after each full-bath solution exchange to allow current amplitude and kinetics to reach a steady state.
(§2) Nav currents were evoked by a 25 ms test pulse to −20 mV (Vh = −120 mV; 0.1 Hz). Extracellular drug applications were performed by exchanging the whole bath with the test compounds diluted in extracellular solution to the required concentration during constant monitoring (25 ms, −20 mV, Vh −120 mV, 0.1 Hz). The control solution included 0.1% ethanol to account for non-specific vehicle effects. For concentration–response curves (CRCs), compounds at incrementally higher concentrations were applied to the extracellular bath solution and allowed to equilibrate for 5 min. The average current amplitude from the last five test pulses at each concentration was used for analysis.
(§3) APC data were analyzed using PatchMaster (Nanion) and Igor (WaveMetrics, Portland, OR, USA) software. Nav peak and late currents measured in the presence of increasing amounts of PbTx-3 and brevenal were divided by the current in control conditions (ICtr) to generate CRCs. […]

[2] = system: human Nav channels (Nav1.2, Nav1.4, Nav1.5, Nav1.7); assay: in vitro; assay type: cell-based
Experimental: as §1, §2, §3

SMILES | EC50 [1] [µM] | fold enhancement of late currents mediated by Nav1.2, Nav1.4, and Nav1.5 [2] | orders of magnitude more potent than brevenal at modulating Nav currents [2]
C=C/C=C\CC[C@H]1O[C@H]2CC[C@@]3(C)O[C@H]4[C@@H](O)C[C@@]5(C)O[C@@H](CC/C=C(C)/C(C)=C/C=O)[C@@H](C)C[C@H]5O[C@@H]4C[C@@H]3O[C@@H]2CC[C@@]1(C)O [Brevenal] | 0.01 to 10 |  | 
C=C(CO)C[C@@H]1C[C@H](O)[C@]2(C)OC3CC4OC5C[C@]6(C)O[C@]7(C)CCC8OC9C[C@]%10(C)OC%11C(C)=CC(=O)OC%11CC%10OC9C[C@@H](C)C8OC7CC6O[C@@]5(C)C/C=C\C4OC3CC2O1 (stereo partly drawn) [PbTx-3, Brevetoxin PbTx-3] |  | 2–4 fold | 1–3 orders of magnitude
